{
  "source": "patent US5068198A",
  "about": "“Liquid single reagent for assays involving confining gels” (Syntex (U.S.A.) Inc., priority 1989, dated 1991)",
  "key": {"G6PDH": {"tested_on": "G6PDH", "assay": "Inhibition of G6PDH by encapsulated and free Anti-G6PDH, with or without Triton", "type": "biochemical", "settings": "Triton 5%; in words", "experimental": "Anti-G6PDH was encapsulated in liposome. The liposome composition was L-α-dioleoyl lecithin (70%) and L-α-dioleoyl phosphatidyl glycerol (30%).\nEnzyme: G6PDH, dissolved in buffer\nFree Antibody: Anti-G6PDH, in buffer\nSubstrate: 0.13M G6P, 0.08M NAD, and\nProtocol: 50 μl of enzyme (270 ng) was mixed with 50 μl of free or encapsulated antibody and 0.6 ml Buffer containing (1 mg/ml) with or without 5% Triton. After one hour at ambient temperature, 50 μl of substrate was added together with 0.3 ml buffer."}, "[1]": {"tested_on": "monoclonal anti-theophylline", "assay": "Assay for theophylline using encapsulated Theophylline-G6PDH as a single liquid reagent", "type": "biochemical", "experimental": "Theophylline-G6PDH was encapsulated in liposomes (POPC 76%, POPG 4%, and cholesterol 20%) and used in an assay for theophylline. The assay employed the following reagents:\nProtocol 0.3 ml of the Reagent dispensed into a Croan cup."}, "Anti-digoxin [2]": {"tested_on": "Anti-digoxin", "procedure": "Reagent: Digoxin-G6PDH encapsulated\nin liposomes (POPC 70%, POPG\nAnti-digoxin optimized for\nresponse, 0.13M G6P, RSA (20\nDiluent: 0.5% Triton, 4 mM NAD, 5mM\nProtocol: 50 μl of the reagent was drawn up into a diluter and dispensed with 200 μl of buffer containing RSA (1 mg/ml) into a 1 ml Croan cup. A 50 μl aliquot of the sample was drawn up and dispersed with 700 μl of diluent into the Croan cup. Immediately after sample addition, the entire sample was aspirated into a flow cell and readings were taken at 30° over thirty seconds."}, "Anti-digoxin [3]": {"tested_on": "Anti-digoxin", "remark": "listed apart in the source", "source_text": "As a comparison to the assay using a single liquid reagent an assay was run using unencapsulated enzyme conjugate and antibody in separate liquid reagents. The reagent quantities and the final volume of the assay were arranged to be identical to those in the single reagent assay above in Example 3."}, "[4]": {"settings": "digoxin 0.083 μg/ml, 30°, thirty seconds"}},
  "note": "Where two headings read alike, the source gives them in different places.",
  "data": [
    {"compound": "Triton", "values": [
      {"measurement": "effect of Triton on enzyme activity or extent of inhibition in enzyme by antibody", "setting": "G6PDH", "result": "did not affect"}
    ]},
    {"compound": "Cn1c(=O)c2[nH]cnc2n(C)c1=O", "note": "[Theophylline, theophylline]", "values": [
      {"measurement": "enzyme activity, Single Reagent", "setting": "[1]; theophylline 2.5 μg/ml, 30°, thirty second read", "result": 356, "unit": "Eu"},
      {"measurement": "enzyme activity, Single Reagent", "setting": "[1]; theophylline 5 μg/ml", "result": 394, "unit": "Eu"},
      {"measurement": "enzyme activity, Single Reagent", "setting": "[1]; theophylline 10 μg/ml", "result": 455, "unit": "Eu"},
      {"measurement": "enzyme activity, Single Reagent", "setting": "[1]; theophylline 20 μg/ml", "result": 537, "unit": "Eu"},
      {"measurement": "enzyme activity, Single Reagent", "setting": "[1]; theophylline 40 μg/ml", "result": 610, "unit": "Eu"}
    ]},
    {"compound": "C[C@H]1O[C@@H](O[C@H]2[C@@H](O)C[C@H](O[C@H]3[C@@H](O)C[C@H](O[C@H]4CC[C@@]5(C)[C@H](CC[C@@H]6[C@@H]5C[C@@H](O)[C@]5(C)[C@@H](C7=CC(=O)OC7)CC[C@]65O)C4)O[C@@H]3C)O[C@@H]2C)C[C@H](O)[C@@H]1O", "note": "[Digoxin, digoxin]", "values": [
      {"measurement": "enzyme activity, Single Reagent", "setting": "Anti-digoxin [2]; [4]", "result": 403, "unit": "EU"},
      {"measurement": "enzyme activity, Single Reagent", "setting": "Anti-digoxin [2]; digoxin 0.166 μg/ml", "result": 440, "unit": "EU"},
      {"measurement": "enzyme activity, Single Reagent", "setting": "Anti-digoxin [2]; digoxin 0.333 μg/ml", "result": 511, "unit": "EU"},
      {"measurement": "enzyme activity, Single Reagent", "setting": "Anti-digoxin [2]; digoxin 0.666 μg/ml", "result": 584, "unit": "EU"},
      {"measurement": "enzyme activity, Single Reagent", "setting": "Anti-digoxin [2]; digoxin 1.33 μg/ml", "result": 628, "unit": "EU"},
      {"measurement": "enzyme activity, Single Reagent", "setting": "Anti-digoxin [2]; digoxin 2.66 μg/ml", "result": 653, "unit": "EU"},
      {"measurement": "enzyme activity, Single Reagent", "setting": "Anti-digoxin [2]; digoxin 10.65 μg/ml", "result": 665, "unit": "EU"},
      {"measurement": "enzyme activity, Two Reagent", "setting": "Anti-digoxin [3]; [4]", "result": 410, "unit": "EU"},
      {"measurement": "enzyme activity, Two Reagent", "setting": "Anti-digoxin [3]; digoxin 0.166 μg/ml", "result": 456, "unit": "EU"},
      {"measurement": "enzyme activity, Two Reagent", "setting": "Anti-digoxin [3]; digoxin 0.333 μg/ml", "result": 518, "unit": "EU"},
      {"measurement": "enzyme activity, Two Reagent", "setting": "Anti-digoxin [3]; digoxin 0.666 μg/ml", "result": 603, "unit": "EU"},
      {"measurement": "enzyme activity, Two Reagent", "setting": "Anti-digoxin [3]; digoxin 1.33 μg/ml", "result": 645, "unit": "EU"},
      {"measurement": "enzyme activity, Two Reagent", "setting": "Anti-digoxin [3]; digoxin 2.66 μg/ml", "result": 678, "unit": "EU"},
      {"measurement": "enzyme activity, Two Reagent", "setting": "Anti-digoxin [3]; digoxin 5.33 μg/ml", "result": 713, "unit": "EU"},
      {"measurement": "enzyme activity, Two Reagent", "setting": "Anti-digoxin [3]; digoxin 10.65 μg/ml", "result": 717, "unit": "EU"}
    ]}
  ]
}
